Assay results taken from ChEMBL document CHEMBL3112523, “Synthesis and biological evaluation of benzo[4,5]imidazo[1,2-c]pyrimidine and benzo[4,5]imidazo[1,2-a]pyrazine derivatives as anaplastic lymphoma kinase inhibitors” (Bioorg Med Chem, 2014).
pIC50: −log10 of the molar value.

Experiments:
[1] = target: ALK tyrosine kinase receptor (Homo sapiens, UniProt Q9UM73)
[2] = target: ALK tyrosine kinase receptor (Homo sapiens, UniProt Q9UM73, L1196M)
BaF3 = experiment: cells; conditions: Mus musculus
Description: Cytotoxicity against mouse BAF3 cells assessed as growth inhibition after 72 hrs by [3H]-thymidine incorporation assay

| Compound | pIC50 [1] | pIC50 [2] | pIC50 (BaF3) |
| --- | --- | --- | --- |
| c1ccc(Nc2cc3nc4ccccc4n3cn2)cc1 | 4.28 | 5.00 |  |
| O=[N+]([O-])c1cccc(Nc2cc3nc4ccccc4n3cn2)c1 | 5.00 | 4.85 |  |
| Brc1ccc2nc3cc(Nc4ccccc4)ncn3c2c1 | 4.16 | 4.31 | 5.28 |
| COc1ccc(-c2ccc3nc4cncc(/C=C/c5ccccc5)n4c3c2)cc1 | 6.19 | 5.82 | < 4.90 |
| CN1CCN(c2ccc(-c3ccc4nc5cncc(-c6ccc(N7CCN(C)CC7)cc6)n5c4c3)cc2)CC1 | < 4.00 | 4.54 | 6.06 |
| COc1ccc(-c2cncc3nc4ccc(/C=C/c5ccccc5)cc4n23)cc1 | 5.46 | 5.35 |  |

The next lines start with results.

| pIC50 [1] | Compound | pIC50 [2] | pIC50 (BaF3) |
| --- | --- | --- | --- |
| 4.85 | COc1ccc(-c2cncc3nc4ccc(-c5ccc(N6CCN(C)CC6)cc5)cc4n23)cc1 |  |  |
| < 4.00 | Clc1cc2nc3ccccc3n2cn1 |  |  |
| 4.74 | COc1ccc(-c2cncc3nc4ccc(-c5ccc(NC(C)=O)cc5)cc4n23)cc1 |  |  |
| < 4.30 | Clc1cncc2nc3ccc(Br)cc3n12 |  | 5.62 |
| 5.00 | COc1ccc(-c2cc3nc4ccc(Br)cc4n3cn2)cc1 |  | < 4.60 |
| < 4.30 | Clc1cc2nc3ccc(Br)cc3n2cn1 |  |  |
| 4.29 | COc1cccc(Nc2cc3nc4ccccc4n3cn2)c1 |  |  |
| < 4.00 | Clc1cncc2nc3ccccc3n12 |  |  |
